Active and inactive are the calls of the source. The rule behind the calls is not given here.

We go through one compound from ChEMBL document CHEMBL3351435, “New pyrrole derivatives with potent tubulin polymerization inhibiting activity as anticancer agents including hedgehog-dependent cancer” (J Med Chem, 2014).

One data set can be described thus: cells. The following applies: Homo sapiens, OVCAR-8, 96 h.
Data set [1] in a line: Cmax in CD-1 mouse at 15 mg/kg, po. Type of data set: ADME, organism-based. The arrangement: dose 15 mg/kg, route oral. The conditions noted are these: in vivo.
A short description of data set [2]: Tmax in CD-1 mouse at 15 mg/kg, po. It is filed as ADME, organism-based. The arrangement: dose 15 mg/kg, route oral. The conditions noted are these: in vivo.
Data set [3] relates to HeLa. Briefly: Cell cycle arrest in human HeLa cells assessed as mitotic rounded-up phenotype at 20 nM by light microscopy. Type of data set: functional, cell-based.
Data set [4] has as its system HepG2. The experiment in a line: Cell cycle arrest in human HepG2 cells assessed as rounded cells at 500 nM after 24 hrs by propidium iodide staining-based flow cytometry. Type of data set: functional. A general note: Flow cytometry measures light scatter and fluorescence of single cells or particles in a stream.
A further data set addresses Tubulin. Briefly: Inhibition of tubulin (unknown origin) polymerization incubated 15 mins prior to GTP addition by spectrophotometry. Type of data set: protein-complex assay, Homo sapiens.
Data set [5] deals with HepG2. The experiment in a line: Cytotoxicity against human HepG2 cells assessed as growth inhibition after 48 hrs by MTT method. It is filed as functional, cell-based. The conditions noted are these: HepG2, 48 h.
The nature of data set [6]: Elimination half life in CD-1 mouse at 5 mg/kg, iv. The conditions noted are these: in vivo, read-out: beta t1/2. Further details: dose 5 mg/kg, route intravenous. It is filed as ADME, organism-based.
Data set [7] can be described thus: Mean residence time in CD-1 mouse at 5 mg/kg, iv. Type of data set: ADME, organism-based. Further details: dose 5 mg/kg, route intravenous. The conditions noted are these: in vivo.
Another data set addresses Tubulin (Homo sapiens) (UniProt P68371+Q9H4B7+P0DPH7+P68366+Q13509+Q71U36+P04350+Q3ZCM7+P07437+P68363+Q9BQE3+Q6PEY2+Q13885+Q9BVA1+Q9BUF5). Briefly: Displacement of [3H]colchicine from tubulin (unknown origin) at 5 uM after 10 mins. Type of data set: protein-complex assay.
Data set [8] is described as follows: Elimination half life in CD-1 mouse at 15 mg/kg, po. It is filed as ADME, organism-based. The arrangement: dose 15 mg/kg, route oral. The conditions noted are these: in vivo, read-out: beta t1/2.
Data set [9] concerns HeLa. Briefly: Cell cycle arrest in human HeLa cells assessed as mitotic rounded-up phenotype at 100 nM by light microscopy. Type of data set: functional, cell-based.
Data set [10] relates to HeLa. The experiment in a line: Cytotoxicity against human HeLa cells assessed as growth inhibition after 48 hrs by MTT method. It is filed as functional, cell-based.
Data set [11] in a line: Cell cycle arrest in human PC3 cells assessed as accumulation at G2/M phase at 500 nM after 24 hrs by propidium iodide staining-based flow cytometry. It is filed as functional. The following applies: PC-3.
In data set [12] the test system is HepG2. The experiment in a line: Cell cycle arrest in human HepG2 cells at 500 to 2000 nM incubated for 24 hrs followed by compound washout measured after 24 hrs. Type of data set: functional, cell-based.

Description for cells: Cytotoxicity against human OVCAR8 cells assessed as growth inhibition after 96 hrs by Giemsa staining-based light microscopy

On to `COc1cc(C(=O)c2ccn(-c3cccc(N)c3)c2)cc(OC)c1OC`, for which the half-maximal inhibitory concentration (IC50) (usually the concentration at which inhibition is half-maximal) was 7 nM in “cells”, 1400 nM against Tubulin, 274 nM in the data set on HepG2 [5] and 30 nM in the data set on HeLa [10]. The highest level in data set [1] (Cmax) was 1770 ng/mL. For the same compound, the time of peak concentration (Tmax) (in general, the time from dosing to the highest level) in data set [2] is 5 min. The result (with HeLa [3]; in the data set on HepG2 [4]; in the data set on HeLa [9]; in data set [11]) was Active. For the same compound, the results for the half-life in data set [6] and in data set [8] were 74 min and 179 min, respectively. Besides, the MRT (as a rule, a mean duration of stay, worked out from the concentration-time curve) in [7] was 31 min. Besides, the inhibition (usually the relative decrease from the control value, in per cent) on Tubulin (Homo sapiens) was found to be 86%. Further, the result in the data set on HepG2 [12] was inactive.
